Data published in the supplement of paper PMC12592484.

Key:
Assay in all cases: drug sensitivity score (DSS2, normalised partial AUC of dose-response, 72 h CellTiter-Glo viability) (DSS (dimensionless)); higher = more sensitive (stronger growth inhibition / cytotoxicity); extreme values may be limits of the assay
[1] = system: 22Rv1
Procedure, shortened: (§1)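 In BREEZE, the drug sensitivity score was derived as a partial area under a fitted logistic dose–response curve over the log of that curve's upper asymptote; a higher score marks a more sensitive response. The input came from low-passage primary prostate cancer-associated fibroblasts, PF179T, WPMY-1, LNCaP and 22Rv1 cells, each seeded into 384-well plates with compounds pre-dispensed at five doses spanning a 10,000-fold range. CellTiter-Glo 2.0 luminescence after 72 h gave viability, which was normalized to vehicle and positive-control wells.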

[2] = system: CAF#2 (primary prostate cancer-associated fibroblasts of iCAF-like type)
Procedure, shortened: as §1

[3] = system: LNCAP
Procedure, shortened: as §1

[4] = system: WPMY-1
Procedure, shortened: as §1

[5] = system: CAF#3 (primary prostate cancer-associated fibroblasts of myCAF-like type)
Procedure, shortened: as §1

[6] = system: CAF#7 (primary prostate cancer-associated fibroblasts of myCAF-like type)
Procedure, shortened: as §1

[7] = system: CAF#4 (primary prostate cancer-associated fibroblasts of iCAF-like type)
Procedure, shortened: as §1

[8] = system: PF179T
Procedure, shortened: as §1

[9] = system: CAF#1 (primary prostate cancer-associated fibroblasts of myCAF-like type)
Procedure, shortened: as §1

[10] = system: CAF#6 (primary prostate cancer-associated fibroblasts of iCAF-like type)
Procedure, shortened: as §1

[11] = system: CAF#5 (primary prostate cancer-associated fibroblasts of myCAF-like type)
Procedure, shortened: as §1

Row | SMILES | drug sensitivity score [1] | drug sensitivity score [2] | drug sensitivity score [3] | drug sensitivity score [4] | drug sensitivity score [5] | drug sensitivity score [6] | drug sensitivity score [7] | drug sensitivity score [8] | drug sensitivity score [9] | drug sensitivity score [10] | drug sensitivity score [11]
1 | CN(C)C/C=C/C(=O)Nc1cc2c(Nc3ccc(F)c(Cl)c3)ncnc2cc1O[C@H]1CCOC1 [Afatinib] (tested concentration range 0.1-1000 nM) | 3.4 | 0.3 | 2.7 | 0 | 0 | 0 | 0 | 0 | 0.3 | 0 | 0
2 | COc1cc2ncnc(Nc3ccc(F)c(Cl)c3)c2cc1NC(=O)/C=C/CN1CCCCC1 [Dacomitinib] (tested concentration range 0.1-1000 nM) | 1 | 1 | 1.4 | 1 | 0.6 | 0 | 1.4 | 0.2 | 0.7 | 0 | 0
3 | CNc1nc(Nc2cn(C(C)(C)C#N)nc2C)ncc1C(F)(F)F [GNE-0877] (tested concentration range 0.1-1000 nM) | 0 | 0 | 0 | 0 | 0 | 0 | 0 | 0 | 0 | 0 | 0
4 | CN1CCN(c2ccc(C(=O)Nc3n[nH]c4ccc(Cc5cc(F)cc(F)c5)cc34)c(NC3CCOCC3)c2)CC1 [Entrectinib] (tested concentration range 0.1-1000 nM) | 1.1 | 1.9 | 1 | 0.9 | 2.1 | 2.1 | 0 | 1 | 1.3 | 0.7 | 0.8
5 | COc1cc(OC2CCN(C)CC2)ccc1Nc1ncc2c(n1)n(C1CCCC1)c(=O)n2C [AZ 3146] (tested concentration range 1-10000 nM) | 7.5 | 4.3 | 4.6 | 4.8 | 3.1 | 2.8 | 0.8 | 2.3 | 1.8 | 1.6 | 0.7
6 | Cc1c(Cn2c(C)nc3c(C(=O)O)cc(N4CCOCC4)cc32)cccc1C(F)(F)F (tested concentration range 1-10000 nM) | 0 | 0.4 | 12.4 | 0 | 6.2 | 5.1 | 1.3 | 2.1 | 2.6 | 2.1 | 0.1
7 | C[C@H]1Oc2cc(cnc2N)-c2c(nn(C)c2C#N)CN(C)C(=O)c2ccc(F)cc21 [Lorlatinib] (tested concentration range 0.1-1000 nM) | 0.3 | 2.2 | 0 | 0.4 | 0 | 2.9 | 2.5 | 0 | 1.9 | 1.4 | 3.3
8 | COc1cccc2c1C(=O)c1c(O)c3c(c(O)c1C2=O)C[C@@](O)(C(=O)CO)C[C@@H]3O[C@H]1C[C@H](N)[C@@H](O)[C@H](C)O1 [Epirubicin] (tested concentration range 0.1-1000 nM) | 10.1 | 6.2 | 15.7 | 9.5 | 3.7 | 7.9 | 2.8 | 6.7 | 4.8 | 7 | 4.4
9 | Cc1ccc(C(=O)Nc2ccc(Oc3cc4cnn(C)c4cc3-c3cn[nH]c3)c(F)c2)c(=O)n1-c1ccc(F)cc1 [Merestinib] (tested concentration range 0.1-1000 nM) | 0 | 5.6 | 0 | 4.3 | 3 | 3.9 | 4.4 | 5.3 | 3 | 3.5 | 3.8
10 | CO[C@H]1C[C@@H]2CC[C@@H](C)[C@@](O)(O2)C(=O)C(=O)N2CCCC[C@H]2C(=O)O[C@H]([C@H](C)C[C@@H]2CC[C@@H](OCCO)[C@H](OC)C2)CC(=O)[C@H](C)/C=C(\C)[C@@H](O)[C@@H](OC)C(=O)[C@H](C)C[C@H](C)/C=C/C=C/C=C/1C [Everolimus] (tested concentration range 0-100 nM) | 11.6 | 8.2 | 14.1 | 5.4 | 7.2 | 10.8 | 6.1 | 6.3 | 11.5 | 8.2 | 9.7
11 | CCn1c(-c2nonc2N)nc2c(C#CC(C)(C)O)ncc(OC[C@H]3CCCNC3)c21 (tested concentration range 1-10000 nM) | 5.4 | 3.3 | 25.7 | 0 | 0 | 0 | 1.2 | 1.9 | 3.8 | 0 | 1.6
12 | N#Cc1ccc(COC[C@H]2O[C@@H](n3c(NCc4ccc(Cl)c(Cl)c4)nc4c(N)ncnc43)[C@H](O)[C@@H]2O)cc1 (tested concentration range 1-10000 nM) | 6.9 | 5.7 | 5 | 1.9 | 0.6 | 4.5 | 5.7 | 4.4 | 3.7 | 1.8 | 4.7
13 | Cc1c(C(=O)Nc2ccc(N3C[C@@H](C)O[C@@H](C)C3)nc2)cccc1-c1ccc(OC(F)(F)F)cc1 [Sonidegib] (tested concentration range 1-10000 nM) | 2.2 | 1.7 | 4.9 | 0 | 0 | 0 | 3.2 | 0 | 0 | 0 | 1.5
14 | CC(=O)Nc1ccc(C(=O)Nc2ccccc2N)cc1 [Tacedinaline] (tested concentration range 0.1-1000 nM) | 0.1 | 2.3 | 0.6 | 0 | 3.3 | 0.6 | 0.5 | 0.9 | 1.8 | 0 | 2.5
15 | O=C1Cc2cc(C(=O)NC3C[C@H]4CC[C@@H](C3)N4S(=O)(=O)CC3CCN(CCCC(F)(F)F)CC3)c(Cl)cc2N1 (stereo not given in full) (tested concentration range 1-10000 nM) | 0 | 0 | 0 | 0 | 0 | 0 | 0 | 0.5 | 0 | 0 | 0
16 | Cc1ccc(C(=O)Nc2cccc(C(F)(F)F)c2)cc1Nc1nc(-c2cccnc2)nc2c1cnn2C [NVP-BHG712] (tested concentration range 1-10000 nM) | 5 | 3.2 | 9.6 | 9 | 0 | 0 | 1.6 | 0.6 | 0 | 0 | 1
17 | CO[C@@H](C)Cn1c(=O)n(C)c2cnc3ccc(-c4cncc(C(C)(C)O)c4)cc3c21 (tested concentration range 0.2-2500 nM) | 16.8 | 13.5 | 16.8 | 12 | 10.3 | 10.5 | 10.7 | 14.1 | 14.1 | 10.9 | 14.5
18 | CC[C@@H]1[C@H](F)C(=O)N[C@@H]1COc1nccc2cc(C(N)=O)c(OC)cc12 (tested concentration range 1-10000 nM) | 1.4 | 0.4 | 1.6 | 0 | 0 | 0.1 | 0 | 0 | 0 | 0 | 0
19 | COc1cc(C(=O)O)ccc1NC(=O)[C@@H]1N[C@@H](CC(C)(C)C)[C@](C#N)(c2ccc(Cl)cc2F)[C@H]1c1cccc(Cl)c1F [Idasanutlin] (tested concentration range 1-10000 nM) | 12.7 | 13.5 | 0 | 1.9 | 5.1 | 10.2 | 11.5 | 16.7 | 12.5 | 10.6 | 12.5
20 | CCn1c(-c2nonc2N)nc2cnc(Oc3cccc(NC(=O)c4ccc(OCCN5CCOCC5)cc4)c3)cc21 (tested concentration range 1-10000 nM) | 4.7 | 3.3 | 8.1 | 6.8 | 0.2 | 4.7 | 0.6 | 0.9 | 3.2 | 2.8 | 1.2
21 | Nc1nc2[nH]cc(CCc3ccc(C(=O)N[C@@H](CCC(=O)O)C(=O)O)cc3)c2c(=O)[nH]1 [Pemetrexed] (tested concentration range 1-10000 nM) | 0 | 0 | 9.4 | 13.5 | 0.5 | 0 | 0 | 0.1 | 1.2 | 0 | 0
22 | O=C(O)c1ccc2c(c1)nc(Nc1cccc(Cl)c1)c1ccncc12 [Silmitasertib] (tested concentration range 1-10000 nM) | 6 | 4 | 3.9 | 5.1 | 0.7 | 1.5 | 2.2 | 2.5 | 5.4 | 0.6 | 4.6
23 | COc1cc2nccc(Oc3ccc(NC(=O)C4(C(=O)Nc5ccc(F)cc5)CC4)cc3)c2cc1OC [Cabozantinib] (tested concentration range 0.1-1000 nM) | 0.3 | 7.9 | 7.1 | 3.8 | 5.4 | 5.6 | 3.9 | 4.1 | 4.6 | 3.7 | 7.4
24 | COC(=O)c1ccc([C@H]2c3[nH]c4ccccc4c3C[C@H](C(=O)OC)N2C(=O)CCl)cc1 [RSL3] (tested concentration range 1-10000 nM) | 0 | 3 | 0.9 | 0 | 2.5 | 9.5 | 0 | 0 | 0.7 | 0.6 | 0.3
25 | COc1ccccc1S(=O)(=O)Nc1ccc2c(c1)CN(C)C(=O)N2 [PFI-1] (tested concentration range 3-30000 nM) | 6.6 | 2.1 | 6.4 | 4.2 | 4.3 | 3.4 | 1.3 | 2.6 | 3.1 | 1.8 | 1
